Activity calls are given as the source filed them.
Columns and labels:
[1] = THP-1 cell cytotoxicity, dose response, cytotoxicity control for Vif-APOBEC3G degradation inhibitor project, THP-1 cells (AID 1117359); type: functional; conditions: Human immunodeficiency virus 1, THP-1
[2] = target: T1, RNA-editing ligase 1, mitochondrial (Trypanosoma brucei brucei, UniProt P86926); assay: TbREL1 ligase inhibitors, dose response, biochemical, fluorescence, Trypanosoma brucei (AID 1117295); type: functional
T1 sequence (P86926 whole entry): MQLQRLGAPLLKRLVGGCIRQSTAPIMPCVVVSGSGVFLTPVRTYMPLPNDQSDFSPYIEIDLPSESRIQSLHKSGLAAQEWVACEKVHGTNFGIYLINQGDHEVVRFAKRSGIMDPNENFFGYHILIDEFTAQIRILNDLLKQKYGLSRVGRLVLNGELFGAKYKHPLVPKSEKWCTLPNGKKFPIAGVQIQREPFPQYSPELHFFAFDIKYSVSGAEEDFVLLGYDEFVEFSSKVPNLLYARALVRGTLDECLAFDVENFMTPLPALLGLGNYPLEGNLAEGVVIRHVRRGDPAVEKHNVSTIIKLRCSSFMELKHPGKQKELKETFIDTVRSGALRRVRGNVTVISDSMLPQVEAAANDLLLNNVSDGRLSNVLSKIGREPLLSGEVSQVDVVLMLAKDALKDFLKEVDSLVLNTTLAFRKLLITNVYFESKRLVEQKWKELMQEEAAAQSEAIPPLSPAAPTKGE

[3] = Counterscreen for inhibitors of Trypanosoma brucei methionyl tRNA synthetase (MetRS): Luminescence-based cell-based high throughput dose response assay to identify compounds that are cytotoxic to Jurkat human T lymphocyte cells.; type: functional
[4] = target: T2, Long-chain-fatty-acid--AMP ligase FadD28 (Mycobacterium tuberculosis, UniProt P9WQ59); assay: Fluorescence polarization aasay to screen for inhibitors that compete for the binding of FadD28 to a bisubstrate Measured in Biochemical System Using Plate Reader - 2147-01_Inhibitor_Dose_CherryPick_Activity.; type: functional, Mycobacterium tuberculosis H37Rv
T2 sequence (P9WQ59 whole entry): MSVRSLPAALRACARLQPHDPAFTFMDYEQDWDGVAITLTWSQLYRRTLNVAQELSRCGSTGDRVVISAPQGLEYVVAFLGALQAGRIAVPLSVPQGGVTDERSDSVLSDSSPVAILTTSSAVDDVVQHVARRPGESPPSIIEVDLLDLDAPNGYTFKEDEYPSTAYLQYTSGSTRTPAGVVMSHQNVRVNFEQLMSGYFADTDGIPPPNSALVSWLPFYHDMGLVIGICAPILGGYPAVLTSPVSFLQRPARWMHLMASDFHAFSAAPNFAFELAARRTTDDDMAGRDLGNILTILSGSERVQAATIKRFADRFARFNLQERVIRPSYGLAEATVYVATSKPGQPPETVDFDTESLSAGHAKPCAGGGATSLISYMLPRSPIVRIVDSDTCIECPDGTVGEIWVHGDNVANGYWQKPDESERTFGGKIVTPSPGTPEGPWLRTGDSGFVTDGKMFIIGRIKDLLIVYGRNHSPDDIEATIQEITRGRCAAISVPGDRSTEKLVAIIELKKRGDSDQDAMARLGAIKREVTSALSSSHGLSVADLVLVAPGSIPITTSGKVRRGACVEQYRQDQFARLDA

[5] = target: T3, Methionyl-tRNA synthetase, putative (Trypanosoma brucei brucei, UniProt Q38C91); type: functional, Trypanosoma brucei brucei strain 927/4 GUTat10.1;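 also: Read-out by fluorescence polarization, run as a confirmatory high-throughput counterscreen; potency of MetRS inhibitors measured by reduced AMP formation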
T3 sequence (Q38C91 whole entry): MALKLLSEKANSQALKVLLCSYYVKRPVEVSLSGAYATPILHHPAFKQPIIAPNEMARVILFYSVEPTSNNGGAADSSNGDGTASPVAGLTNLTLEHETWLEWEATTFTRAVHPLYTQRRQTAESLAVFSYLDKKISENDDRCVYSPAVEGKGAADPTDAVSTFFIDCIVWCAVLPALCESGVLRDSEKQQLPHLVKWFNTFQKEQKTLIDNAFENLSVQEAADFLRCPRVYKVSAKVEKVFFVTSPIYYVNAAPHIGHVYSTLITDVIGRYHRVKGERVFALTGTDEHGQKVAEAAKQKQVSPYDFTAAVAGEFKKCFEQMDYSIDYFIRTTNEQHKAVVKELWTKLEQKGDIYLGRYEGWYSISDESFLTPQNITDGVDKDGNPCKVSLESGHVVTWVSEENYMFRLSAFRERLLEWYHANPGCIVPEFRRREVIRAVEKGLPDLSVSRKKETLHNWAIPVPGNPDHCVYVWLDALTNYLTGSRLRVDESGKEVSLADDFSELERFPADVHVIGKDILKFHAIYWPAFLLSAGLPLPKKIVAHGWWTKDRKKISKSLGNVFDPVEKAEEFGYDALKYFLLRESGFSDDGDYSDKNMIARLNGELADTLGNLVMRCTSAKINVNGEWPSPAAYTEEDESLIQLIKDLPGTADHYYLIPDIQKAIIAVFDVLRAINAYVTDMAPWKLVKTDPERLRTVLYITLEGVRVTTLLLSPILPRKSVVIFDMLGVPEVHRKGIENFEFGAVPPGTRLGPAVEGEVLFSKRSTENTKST

[6] = HepG2 cell cytotoxicity, dose response, cytotoxicity control, cherry-picked samples (AID 1159577); type: functional, cell-based
[7] = P. falciparum Dd2 growth inhibitors, dose response, SYBR Green, cherry-picked samples (AID 1159567); type: functional, cell-based
[8] = Jurkat T cell cytotoxicity, dose response, cytotoxicity control for P. falciparum gametocyte viability project, luminescence (AID 1117277); type: functional, cell-based;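 also: potency reflects loss of cellular ATP meaning fewer viable cells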
[9] = P. falciparum late gametocyte killing, dose response, luminescence (AID 1117278); type: functional, cell-based;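 also: gametocytes exposed to compound for 24 hours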
Kallikrein-7 = Kallikrein-7 (Homo sapiens, UniProt P49862); assay: Fluorescence Intensity-based biochemical primary high throughput dose response assay to identify activators of kallikrein-7 (K7) zymogen.
[10] = target: T4, Trace amine-associated receptor 1 (Homo sapiens, UniProt Q96RJ0); assay: Counterscreen for agonists of the human trace amine associated receptor 1 (hTAAR1): Fluorescence-based cell-based high throughput dose response assay to identify hTAAR1 agonist that also desensitize TAAR1 receptor response.; type: functional
T4 sequence (Q96RJ0 whole entry): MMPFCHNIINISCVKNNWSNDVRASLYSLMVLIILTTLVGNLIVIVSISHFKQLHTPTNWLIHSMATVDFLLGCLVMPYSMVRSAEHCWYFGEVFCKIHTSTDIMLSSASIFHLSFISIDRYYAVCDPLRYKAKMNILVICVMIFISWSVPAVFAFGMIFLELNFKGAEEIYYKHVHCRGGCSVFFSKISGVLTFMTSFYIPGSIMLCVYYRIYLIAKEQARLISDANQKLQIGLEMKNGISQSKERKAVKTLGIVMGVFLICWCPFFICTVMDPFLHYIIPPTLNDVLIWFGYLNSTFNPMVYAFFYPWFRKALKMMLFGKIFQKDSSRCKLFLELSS

cells [11] = type: functional, cell-based
[12] = target: T4, Trace amine-associated receptor 1; assay: Fluorescence-based cell-based high throughput dose response assay to identify agonists of the human trace amine associated receptor 1 (TAAR1).; type: functional
cells [13] = type: functional, cell-based; remark: listed apart in the source
[14] = target: NAD-dependent protein deacylase sirtuin-5, mitochondrial (Homo sapiens, UniProt Q9NXA8); assay: SIRT5 desuccinylase inhibitors, dose response, biochemical, fluorescence imaging, cherry-pick, set 5 (AID 720591);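 also: desuccinylation of succinyl peptide AMC substrate read as fluorescence after trypsin release; potency of inhibitors that lower fluorescence and may act on trypsin instead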
Chain of NAD-dependent protein deacylase sirtuin-5, mitochondrial (Q9NXA8 whole entry): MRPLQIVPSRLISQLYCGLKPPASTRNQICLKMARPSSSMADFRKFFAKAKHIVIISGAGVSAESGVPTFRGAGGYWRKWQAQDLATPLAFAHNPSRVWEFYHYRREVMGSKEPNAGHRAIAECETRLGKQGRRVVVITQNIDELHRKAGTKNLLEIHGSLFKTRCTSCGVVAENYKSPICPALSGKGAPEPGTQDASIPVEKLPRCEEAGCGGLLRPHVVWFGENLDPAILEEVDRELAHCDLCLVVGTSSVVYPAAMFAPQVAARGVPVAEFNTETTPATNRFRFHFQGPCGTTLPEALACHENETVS

Chain of Kallikrein-7 (P49862 whole entry): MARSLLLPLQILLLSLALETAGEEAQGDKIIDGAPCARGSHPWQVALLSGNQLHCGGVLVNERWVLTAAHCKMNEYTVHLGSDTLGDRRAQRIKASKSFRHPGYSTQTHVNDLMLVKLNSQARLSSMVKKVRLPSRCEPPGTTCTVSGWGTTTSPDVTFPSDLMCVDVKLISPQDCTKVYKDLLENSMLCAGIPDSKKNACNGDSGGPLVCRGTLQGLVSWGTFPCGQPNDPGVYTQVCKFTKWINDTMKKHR

Compound: O=C(NNC(=O)c1ccccc1O)c1cc2ccccc2o1
- CC50 [1]: 19.2 µM (active)

Compound: COC(=O)C1=C(C)N(Cc2ccc(C(F)(F)F)cc2)C(NCC2CC2)=NC1c1ccccc1C(F)(F)F (centres undefined)
- IC50 [2]: > 96.6 µM (inactive)

Compound: O=C(CSc1ccc(-c2nc3ccccc3[nH]2)cn1)Nc1ccc(S(=O)(=O)N2CCCC2)cc1
- IC50 [3]: 83.3 µM (inactive)
- AC50 [4]: > 100 µM (inactive)
- IC50 [5]: 8.73 µM (active)

Compound: COc1ccc2c3c([nH]c2c1)[C@H](CO)N(Cc1ccc(Cl)cc1)CC31CN(Cc2nccs2)C1
- AC50 [6]: 31.9 µM (active)
- AC50 [7]: 4.85 µM (active)

Compound: COc1ccc(C(=O)NCC(=O)N2CCc3ccccc3C2)cc1
- IC50 [8]: > 83.3 µM (inactive)
- IC50 [9]: > 109 µM (inactive)

Compound: C[C@H](O)[C@@H]1C(=O)N2CCc3c([nH]c4ccccc34)[C@@H]2C[C@@H]1N(C)C(=O)NC1CCCCC1
- EC50 (Kallikrein-7): 8.4 µM (active)

Compound: COc1ccc(CCNC(=O)/C=C/C(=O)O)cc1
- IC50 [10]: > 29.9 µM (inactive)
- EC50 (cells [11]): > 29.9 µM (inactive)
- EC50 [12]: 10.4 µM (inactive)
- IC50 (cells [13]): > 29.9 µM (inactive)

Compound: CCc1ccc(NC(=O)C[n+]2cc(-c3ccc(C)cc3)n3c2CCC3)cc1
- IC50 [2]: > 96.6 µM (inactive)

Compound: Cc1cccc(NC(=O)c2csnn2)n1
- IC50 [8]: > 83.3 µM (inactive)
- IC50 [9]: > 109 µM (inactive)

Compound: Cc1c(C)c2c(OCC(=O)N[C@@H](CC(C)C)C(=O)O)cc3c(c2oc1=O)CCC(C)(C)O3
- EC50 (Kallikrein-7): > 69.5 µM (inactive)

Compound: COCCNC(=O)c1cccc(OC2CCN(Cc3ccc(OC(F)F)cc3)CC2)c1
- AC50 [14]: > 30 µM (inactive)

Source: ChEMBL document CHEMBL1201862, “PubChem BioAssay data set” (2004)
